In publication PMC7180728, “Novel Anthraquinone Compounds Inhibit Colon Cancer Cell Proliferation via the Reactive Oxygen Species/JNK Pathway” (Molecules, 2020):
In brackets after ≈: the same amount, converted by molar mass.

Tests used:
HCT116 = assay: MTT cell proliferation assay, HCT116; assay type: cell-based, human; details: Homo sapiens, HCT-116, HCT116 colon cancer, 48 h
Description: (§1) The effects of the synthesized amide anthraquinone derivatives on the proliferative activity of eight human cancerous cell lines (EC9706, MCF-7, SGC-7901, HepG2, QBC939, HeLa, HCT116 and SW480) in addition to two normal human cell lines (colorectal FHC and liver HL7702) were evaluated using the standard MTT assay.
(§2) The human esophageal cancer cell line EC9706 was obtained from Cancer Hospital and Institute by Prof. Ming Rong Wang, Chinese Academy Medical of Sciences. The human colorectal carcinoma cell lines HCT116 and SW480, hepatoma cell line HepG2, cervical carcinoma cell line HeLa, breast cancer cell line MCF-7, gastric cancer cell line SGC-7901, cholangiocarcinoma cell line QBC939, normal fetal colon cell line FHC and liver cell line HL-7702 were obtained from the Cell Bank of the Shanghai Chinese Academy of Sciences. All cells were cultured in RPMI 1640 medium containing 100 U/mL penicillin and streptomycin and 10% fetal bovine serum and maintained at 37°C under a 5% CO2 atmosphere.
(§3) We analyzed the inhibitory effects of eight anthraquinone-amino acid derivatives on the proliferation of eight tumor cell lines and two normal cell lines in vitro using MTT assays. Cells were added to a 96-well plate with (5,000 cells per well in 100 µL RPMI-1640 medium). Cells were treated with different concentrations (10–100 μg/mL) of 8a–8h for 48 h and then incubated with 20 μL MTT (5 mg/mL) for another 4 h at 37°C. DMSO (150 μL) was then added to each well to dissolve the formazan crystals. The absorbance of each well was read at 490 nm on a microtiter plate ELISA reader. The mean values were obtained from a minimum of three parallel experiments. IC50 values were calculated.

EC9708 = assay: MTT cell proliferation assay, EC9706 (Table 1: EC9708); assay type: cell-based; details: Homo sapiens, EC9708 esophageal cancer, 48 h
Description: as §1, §2, §3

QBC939 = assay: MTT cell proliferation assay, QBC939; assay type: cell-based; details: Homo sapiens, QBC939 cholangiocarcinoma, 48 h
Description: as §1, §2, §3

SW480 = assay: MTT cell proliferation assay, SW480; assay type: cell-based; details: Homo sapiens, SW480 colon cancer, 48 h
Description: as §1, §2, §3

FHC = assay: MTT cell proliferation assay, normal colorectal cells FHC; assay type: cell-based; details: FHC normal human colorectal mucosa, 48 h
Description: as §1, §2, §3

HCT116 cells = assay: MTT cell viability with or without zVAD-FMK; assay type: cell-based, human; details: Homo sapiens, HCT-116, 8a 20 μg/mL alone, 24 h
Excerpt: Caspases represent a key molecular group in the regulation of apoptosis. In caspases, there is an upstream and downstream relationship between the initiator of apoptosis and executioner. Caspase 3 is one of the key executers of apoptosis, as it is either partially or totally responsible for the proteolytic cleavage of many key proteins. For example, when caspase 9 is activated, it activates caspase 3, which ultimately triggers cell apoptosis. After detecting the expression of the corresponding Bcl-2 family proteins after 8a treatment by western blotting, we went on to detect the expression levels of PARP, caspase 9, cleaved caspase 9, caspase 3, and cleaved caspase 3 proteins. […] After 24 h of treatment with zVAD-FMK, cell viability is 93%.
Figure 7 Effect of 8a on apoptosis-related protein expression. […] PARP, caspase 3, cleaved caspase 3, caspase 9, cleaved caspase 9, Bcl-2, phosphorylated Bcl-2, Bcl-XL, phosphorylated Bcl-xL and Bax were detected by western blot analysis; β-actin was used as a loading control in each lane. Representative data of three independent experiments are shown; (C) and (D) Grayscale analysis of the relative expression of apoptosis-related proteins detected by Western blotting. […] (E) Cells were exposed to 8a (20 μg/mL) and/or zVAD-FMK ([…]) for 24 h, and cell viability was measured by MTT assay. […]

Bcl-2, Bcl-xL and Bax = assay: Western blot, Bcl-2 family proteins; assay type: cell-based, human; details: HCT116, western blot
Description: In addition, the expression of apoptosis-related proteins after 8a treatment was detected by western blot. Previous studies have shown that the Bcl-2 protein family is one of the most interesting oncogene-related proteins in programmed cell death. Therefore, we analyzed the levels of Bcl-2, Bcl-xL and Bax after 24 h of treatment with different concentrations (0, 10, 20, and 40 μg/mL) 8a. […] Moreover, the phosphorylation levels of Bcl-2 and Bcl-xL increased with increasing 8a concentration.
The expression of signaling pathway-related proteins was detected by western blot analysis. Cell (1 × 10^6) were plated in 90-mm dishes and treated with 8a for 24 h. The cells were treated with NAC in the same way as in step 4.7. Resuspend the cells in Buffer A (1 mM EDTA, 1 mM PMSF, 0.28 μg/mL apotinin, 50 μg/mL leupeptin, 7 μg/mL pepstain A) and transferred to a 1 mL glass homogenizer and pull up and down 30 times in an ice bath. Cells were collected and centrifuged (1000 g × 10 min, 4 °C). The obtained supernatant and precipitate were the crude cytoplasm and mitochondria, respectively. The cytosolic fraction was transferred to an ultra-ion tube and centrifuged (100,000g × 1 hr, 4 °C), and the resulting supernatant was the purified cytosolic fraction. The mitochondrial pellet was resuspended in Buffer B (1mM EGTA, 1mM PMSF, 0.28 μg/mL apotinin, 50 μg/mL leupeptin, 7 μg/mL pepstain A), centrifuged (10,000g × 10 min, 4 °C), and repeated 3 times. The mitochondria pellet was lysed in cell lysate buffer (1% NP-40, 2 μg/mL aprotinin, 2 μg/mL leupeptin, 1mM EDTA, 1mM Na vanadate). Protein concentrations in the supernatant were determined by using a Minbio BCA protein assay kit. Protein were separated by SDS-PAGE and transferred to a PVDF membrane. The membrane was blocked, and incubated with primary detection antibodies overnight at 4 °C. After washing three times with TBS-T, the membranes were incubated with the secondary detection antibody. […]

IC50 (HCT116): 17.8 ± 0.03 µg/mL (≈ 43.4 µM) | IC50 (SW480): 31.09 ± 0.1 µg/mL (≈ 75.8 µM)
Structure (SMILES): CC(C)CC(NC(=O)c1ccc2c(c1[N+](=O)[O-])C(=O)c1ccccc1C2=O)C(=O)O (stereo not drawn) [Compound 8a, N-[(9,10-dihydro-1-nitro-9,10-dioxo-2-anthracenyl)carbonyl-leucine]]
IC50 (EC9708): 44 ± 0.61 µg/mL (≈ 107 µM) | IC50 (QBC939): 43.13 ± 0.05 µg/mL (≈ 105 µM) | IC50 (FHC): > 1000 µg/mL | viability at 20 µg/mL (HCT116 cells): 38% | Bax expression (Bcl-2, Bcl-xL and Bax; 0, 10, 20, 40 μg/mL, 24 h): increased | levels of Bcl-2 and Bcl-xL (Bcl-2, Bcl-xL and Bax; 0, 10, 20, 40 μg/mL, 24 h): gradually decreased | phosphorylation levels of Bcl-2 and Bcl-xL (Bcl-2, Bcl-xL and Bax; with increasing 8a concentration): increased
